Laboratory results reported in patent US20220074923A1, “METHODS OF IDENTIFYING PARKIN-MEDIATED MITOPHAGY ACTIVATING AGENTS” (THE GOVERNING COUNCIL OF THE UNIVERSITY OF TORONTO, priority 2018, published 2022).
Where two headings read alike, the source gives them in different places.

Tests used:
S2R+ cells = test: mitoSOX mitochondrial superoxide staining; type: cell-based; details: co-treatment with paraquat
Protocol: A) Staining was performed with mitoSOX Red Mitochondrial Superoxide dye. B) Quantification of the fluorescence intensity of the mitoSOX probe in the indicated treatments (n=3). Data is presented as mean±s.e.m. P-values were determined by paired student's t-test, *P-value<0.05.
Whether SR3677 may protect against paraquat-induced phenotypes by interfering with paraquat's activity was also assessed. Paraquat gives rise to mitochondrial superoxide species that can be detected using mitoSOX, a fluorescent probe that is targeted to mitochondria, where it may be oxidized by superoxides. The oxidized mitoSOX species fluoresces upon encountering nucleic acid. The fluorescence intensity of Schneider's S2-R^+ cells, a cell line derived from dissociated embryos with a flat morphology amenable to imaging, was assessed following treatments with paraquat or paraquat and SR3677.

Drosophila = type: in vivo
Protocol: Fresh vials containing standard fly food supplemented with the indicated treatments were changed out every 2 days. The number of flies surviving each day was counted and log-rank tests were performed to determine statistical significance. 20 flies per treatment, n=5 (c) The climbing ability of flies treated as described in (a and bin) was assessed 4 days following initial administration of treatments. The number of flies to climb beyond 9.5 cm every 10 seconds was assessed. The percentage of flies in each treatment to cross this line was determined. The climbing ability of each treatment was normalized to the control group treated with water only. 20 flies per treatment, n=5. (d) The climbing ability of UAS-park^RNAi and ddc-GAL4>UAS-park^RNAi flies fed either paraquat or paraquat in combination with SR3677. 20 flies per treatment, n=7. (e) Proteins lysates from UAS-park^RNAi or tubulin>UAS-park^RNAi whole flies were separated by SDS-PAGE. Immunoblotting with anti-Parkin and anti-actin antibody was performed. (f) The climbing ability of TH-GAL flies fed either paraquat or paraquat in combination with SR3677. (g) Survival of heteroplasmic mt:Coll^T300l flies fed fly food supplemented with water or 2 mM SR3677 and wild-type Canton(S) flies (n=3 independent experiments). (h) The climbing ability of heteroplasmic mt:Coll^T300l flies fed either water or 2 mM SR3677 for 7 days. Log-rank tests were performed to determine p-values for survival analyses (a, b, g), *P<0.05. P-values were determined by one-tailed paired student's t-test for all climbing assays (c-e, h), *P<0.05. Data is expressed as mean±s.e.m. All error bars represent s.e.m
Male Canton(S) Drosophila were aged 7 days prior to feeding with standard fly food supplemented with water, 10 mM paraquat, 1 mM SR3677, or with combinations of these chemicals. Flies were placed into new vials containing fresh food supplemented with the treatments previously administered and 2 days later, climbing assays were performed. Flies were placed into plastic cylinder vials and tapped down, so all flies fell to the bottom. The number of flies to climb beyond 12.5 cm was counted every 10 s and values are represented as the percentage of total flies in each treatment group.

[1] = system: HeLa cells stably expressing GFP parkin and mito-DsRed; test: Mitochondrial clearance assay; type: cell-based
Protocol: HeLa cells stably expressing GFP parkin and mito-DsRed were seeded into 12-well plates containing coverslips and allowed to adhere overnight. Cells were then treated with DMSO or 0.5 μM SR3677 for 2 hours prior to addition of 10 μM CCCP for 24 hours. Cells were then washed with PBS, fixed with 4% PFA and washed with PBS again prior to the mounting of coverslips onto glass slides. Mitochondrial clearance was quantified by counting the number of cells in each treatment to retain mito-DsRed signal. 3 independent trials were performed with at least 50 cells quantified per trial.

SH-SY5Y cells = test: Cell viability by crystal violet staining; type: cell-based; details: 0.5 μM pre-treatment, 10 μM CCCP 24 hours
Protocol: A) SH-SY5Y cells were pre-treated with either DMSO or 0.5 μM SR3677 prior to addition of either DMSO or 10 μM CCCP for 24 hours. Following treatment, cells were washed, fixed with 4% paraformaldehyde and stained with crystal violet dye. B) The OD at 550 nm was measured to assess crystal violet staining.
To determine whether these findings could be translated into dopaminergic neurons, the study was continued in the dopaminergic neuroblastoma SH-SY5Y cell line. Parkin undergoes a similar CCCP-dependent subcellular transition from cytosol to mitochondria in these cells^12. First, whether the viability of these cells would be improved by SR3677 was investigated. Initially, experiments were conducted using crystal violet staining as an indicator of cell viability. […] Next, SH-SY5Y cells were differentiated into a more neuron-like population according to protocols previously described^10 and ATP levels were measured. […] Varying concentrations of SR3677 were co-administered alongside the PD-causing toxin paraquat.

HeLa cells = test: Mito-QC assay (targeting of mitochondria to lysosomes); type: cell-based; details: 0.5 μM 2 h pre-treatment, 10 μM CCCP 6 h with E-64 and leupeptin
Protocol: HeLa cells were seeded into 6-well plates containing glass coverslips and allowed to adhere overnight. Cells were co-transfected with RGOMP25 and Cerulean-Parkin plasmids 24 hours prior to treatments. E-64 and leupeptin were added along with either DMSO or 10 μM CCCP for 6 hours prior followed by a PBS wash, fixation with 4% PFA and a final PBS wash prior to mounting onto glass slides with Fluoromount.
Cells were treated with 50 μM chloroquine for 16 hours prior to addition of E64, leupeptin, SR3677 and CCCP in the indicated treatment group. For the in vivo mitoQC assays, 5 7-day old male TH-GAL4>UAS-mitoQC were placed into vials containing water (control), sublethal 1 mM paraquat, 1 mM SR3677 alone and in combination with paraquat for 7 days. […] Fly brains were mounted in VectaShield™ mounting medium for imaging using the Zeiss LSM700 confocal fluorescence microscope with 40× 1.4 NA Oil Plan-APOCRAMAT objective and the appropriate lasers and filter. […]
Quantification of the RG assay was done using Fiji software. […] A red/green fluorescence intensity ratio was determined for each pixel. Pixels were considered red-only if the red/green fluorescence ratio was greater than or equal to 1.5. The area of red-only pixels over the total non-background area was determined and averaged across 4 independent trials in which at least 20 cells were quantified per treatment.

Question: Which results are given for CN(C)CCOc1cc(-c2cn[nH]c2)ccc1NC(=O)[C@@H]1COc2ccccc2O1 [SR3677]?
Answer: paraquat-mediated increase in mitochondrial superoxide levels (S2R+ cells): does prevent the paraquat-mediated increase in mitochondrial superoxide levels; climbing ability of paraquat-treated flies (Drosophila; Canton(S), 1 mM SR3677 with 10 mM paraquat): restores climbing ability; climbing ability with paraquat (Drosophila; TH-GAL4, UAS-rok^RNAi flies): No further improvement to climbing ability; climbing ability with paraquat (Drosophila; UAS-park^RNAi flies): improved; paraquat-induced climbing defects (Drosophila; ddc-GAL4>UAS-park^RNAi flies): no improvement; mitochondrial mass without CCCP ([1]; 0.5 μM SR3677, 24 hour DMSO treatment): retained mitochondrial mass; % of cells that retained mito-DsRed ([1]; pre-treated with 0.5 μM SR3677, 24 hour 10 μM CCCP): 28±8.21%; crystal violet staining (OD) (SH-SY5Y cells): increased crystal violet; mitochondrial targeting to lysosomes (red-only mitochondrial area) (HeLa cells): increased the extent of mitochondrial targeting to lysosomes
